In this assay the test system is Mycobacterium tuberculosis. The assay can be described thus: Antimycobacterial activity against multidrug-resistant Mycobacterium tuberculosis 2745/09. In kind it is functional.

The text below walks through data of ChEMBL document CHEMBL2177104, “Identification of antitubercular benzothiazinone compounds by ligand-based design” (J Med Chem, 2012).

As usually defined, the MIC is the least concentration at which growth counts as inhibited.

Values after ≈ are worked out from the molar mass of the structure shown.

Regarding `O=c1nc(NCc2ccc3c(c2)OCCO3)sc2c([N+](=O)[O-])cc(C(F)(F)F)cc12`, it took 0.03 mg/L (≈ 0.0683 µM) to inhibit growth (MIC). As to `Cc1ccc(CNc2nc(=O)c3cc(C(F)(F)F)cc([N+](=O)[O-])c3s2)n1C`, the MIC was at most 0.125 mg/L. The figure for `CN(C(=O)CN1CCN(c2nc(=O)c3cc(C(F)(F)F)cc([N+](=O)[O-])c3s2)CC1)c1ccccc1` is 0.03 mg/L (≈ 0.0591 µM).

Regarding `O=c1nc(N2CCN(c3nccs3)CC2)sc2c([N+](=O)[O-])cc(C(F)(F)F)cc12`, the MIC was at most 0.125 mg/L. The figure for `CN(C)c1ccc(CN(C)c2nc(=O)c3cc(C(F)(F)F)cc([N+](=O)[O-])c3s2)cc1` is 0.03 mg/L (≈ 0.0684 µM); for `O=c1nc(N2CCC(F)(F)CC2)sc2c([N+](=O)[O-])cc(C(F)(F)F)cc12` it is at most 0.125 mg/L; for `CN(c1nc(=O)c2cc(C(F)(F)F)cc([N+](=O)[O-])c2s1)[C@H]1CCN(Cc2ccccc2)C1` it is above 0.03 mg/L. The result for `O=c1nc(N2CCC(c3ccccc3)CC2)sc2c([N+](=O)[O-])cc(C(F)(F)F)cc12` reads at most 0.0125 mg/L. `COC(=O)C1CN(c2nc(=O)c3cc(C(F)(F)F)cc([N+](=O)[O-])c3s2)CCC12OC[C@H](C)O2` (some centres not stated): the MIC was above 0.1 mg/L. The figure for `COC(=O)[C@@H]1OC2(CCN(c3nc(=O)c4cc(C(F)(F)F)cc([N+](=O)[O-])c4s3)CC2)O[C@H]1c1ccccc1` is above 0.03 mg/L. The figure for `CCCOCC1COC2(CCN(c3nc(=O)c4cc(C(F)(F)F)cc([N+](=O)[O-])c4s3)CC2)O1` (configuration not stated) is at most 0.015 mg/L; for `C[C@H]1COC2(CCN(c3nc(=O)c4cc(C(F)(F)F)cc([N+](=O)[O-])c4s3)CC2)O1` [BTZ-043] it is at most 0.015 mg/L.
